Reference: patent publication US5792851A, “Human prostaglandin transporter” (Albert Einstin College of Medicine of Yeshiva University, a …, priority 1996, dated 1998)

Experiments:
[1] = biological target: T1, human prostaglandin transporter (hPGT) (Homo sapiens, UniProt Q92959); experiment: Inhibition of hPGT-mediated tracer PGE2 uptake in transfected HeLa cells; format: cell-based
[2] = biological target: T1, human prostaglandin transporter (hPGT); experiment: Timed uptake of tracer 3[H]-prostaglandins into HeLa cells expressing clone 3 (hPGT); format: cell-based; settings: for difference between transport rates: 10 and 20 minutes; for 2-minute rank-order of uptakes: 2 minutes, 27° C., tracer 0.6-1.0 nM
[3] = tested on: rat PGT; settings: reference 36; cited from earlier work
[4] = tested on: rat PGT; experiment: Tracer prostaglandin transport by rat PGT re-expressed in HeLa cells; format: cell-based; settings: data not shown
[5] = HeLa, 10 min, read-out: percent of the control 10-min tracer PGE2 uptake

Row | Structure (SMILES) | remaining activity at 0.1 µM [1, 5] [%] | difference between transport rates [2] | 2-minute rank-order of uptakes [2] | remaining activity at 10 µM [1, 5] [%] | remaining activity at 100 µM [1, 5] [%] | further results
1 | CCCCC[C@H](O)/C=C/[C@@H]1[C@@H](C/C=C\CCCC(=O)O)[C@@H](O)C[C@H]1O [PGF2α] | 45 ± 1.3 | essentially no difference | PGE2 >PGE1>PGF2α >PGD2 >TxB2 |  |  | 
2 | CCCCC[C@H](O)/C=C/[C@H]1OC(O)C[C@H](O)[C@@H]1C/C=C\CCCC(=O)O (stereo partly shown) [TxB2] |  |  | PGE2 >PGE1>PGF2α >PGD2 >TxB2 |  |  | transport rate relative to PGE2 or PGF2α [3]: about half that of PGE2 or PGF2α; remaining activity at 0.5 µM [1, 5]: 26.7 ± 0.1%; transport rate relative to PGE2 or PGF2α ([2]; hPGT, FIG. 2): about half that of PGE2 or PGF2α
3 | CCCN(CCC)S(=O)(=O)c1ccc(C(=O)O)cc1 [Probenecid] |  |  |  | 104 ± 5.2 | 92.8 ± 2 | potency as inhibitor of hPGT (in words) [1]: much less effective
4 | CCCCC[C@H](O)/C=C/[C@H]1[C@H](O)CC(=O)[C@@H]1C/C=C\CCCC(=O)O [PGE2] |  | essentially no difference | PGE2 >PGE1>PGF2α >PGD2 >TxB2 |  |  | 
5 | CCCCC[C@H](O)/C=C/[C@H]1C(=O)C[C@H](O)[C@@H]1C/C=C\CCCC(=O)O [PGD2] | 47.9 ± 0.9 | essentially no difference | PGE2 >PGE1>PGF2α >PGD2 >TxB2 |  |  | transport rate of tracer relative to PGE2 [4]: at a rate equivalent to that of PGE2
6 | NS(=O)(=O)c1cc(C(=O)O)c(NCc2ccco2)cc1Cl [Furosemide] |  |  |  | 91.5 ± 3.3 | 63.3 ± 1.7 | 
7 | CCCCC[C@H](O)/C=C/[C@H]1[C@H](O)CC(=O)[C@@H]1CCCCCCC(=O)O [PGE1] | 50.8 ± 3.4 | essentially no difference | PGE2 >PGE1>PGF2α >PGD2 >TxB2 |  |  | 
8 | CC#CCC(C)[C@H](O)/C=C/[C@@H]1[C@H]2C/C(=C/CCCC(=O)O)C[C@H]2C[C@H]1O (stereo partly shown) [iloprost] |  |  |  |  |  | transport above baseline ([2]; 3[H]-iloprost 7.9 nM, data not shown): not transported above baseline
9 | COc1ccc2c(c1)c(CC(=O)O)c(C)n2C(=O)c1ccc(Cl)cc1 [Indomethacin] |  |  |  | 114 ± 3.8 | 82.5 ± 1 | potency as inhibitor of hPGT (in words) [1]: much less effective
